In PMC6127322, “Novel Imidazole and Methoxybenzylamine Growth Inhibitors Affecting Salmonella Cell Envelope Integrity and its Persistence in Chickens” (Scientific Reports, 2018):
Values after ≈ are worked out from the molar mass of the structure shown. Like-named read-outs stand apart in the source and are kept apart here. Marks after values point to notes of the source that are not given here.

What was measured:
[1] = tested on: S. Typhimurium LT2 wild-type (WT) strain; assay: Dose-response assay (MIC and MBC determination) in M9 broth; type: cell-based, Salmonella enterica subsp. enterica serovar Typhimurium; conditions: 12 hrs at 37 °C, read-out: MBC (minimal bactericidal concentration)
Description: Typhimurium using high-throughput screening assay in a 96-well plate format. […] Plates were incubated in a Sunrise Tecan kinetic microplate reader for 12 hrs at 37 °C and the optical density (OD) was measured at 600 nm. The percentage of growth inhibition was calculated as: […]. Cultures from wells showing no turbidimetric increase were transferred onto a XLT4 agar plate. Plates were incubated at 37 °C for 36 hrs. […] S. Typhimurium was challenged with a determined concentration of SM as described in the primary screen.

Salmonella Heidelberg = assay: Dose-response assay (MBC) on Salmonella serovars; type: cell-based; conditions: Salmonella enterica; serovar Heidelberg, M9 broth
Salmonella Javiana = assay: Dose-response assay (MBC) on Salmonella serovars; type: cell-based, Salmonella enterica
Salmonella Newport = assay: Dose-response assay (MBC) on Salmonella serovars; type: cell-based; conditions: Salmonella enterica; serovar Newport, M9 broth
[2] = tested on: Salmonella enterica subsp. enterica serotype Typhimurium; assay: Checkerboard assay, SM and antibiotic combinations; type: cell-based; conditions: for MBC: Salmonella enterica, TYPHIMURIUM, SM alone, read-out: SM MBCalone; for Reduction of cefeprime MBC / Reduction of meropenem MBC: sub-lethal concentration of SM
Description: The potentiation effect of several antibiotics, commonly used to control Salmonella, was studied in a checkerboard assay. […] The MBC of each antibiotic was determined in M9 medium prior the experiment using a dose-response assay, as described above. For potentiation studies, 100 μl of a S. […] The MBC of each antibiotic was determined as described in the dose-response assay. Bacteria challenged with SMs or antibiotics alone at the same concentrations were used to determine the antibiotic-SM combination effects. […] Further, the bacterial suspension was plated on an agar medium and incubated at 37 °C for 36 hrs. The antibiotic-SM combination effect was calculated based on the determination of the fractional bactericidal concentration (FBC) as previously described[66],[67].

[3] = tested on: Campylobacter jejuni 81–176; assay: Activity spectrum on foodborne pathogens; type: cell-based; conditions: 200 µM
[4] = tested on: S. Typhimurium cell membrane; assay: Confocal microscopy, FM4-64 and SYTO9 staining; type: cell-based, Salmonella enterica subsp. enterica serovar Typhimurium; conditions: 5X MBC for 3 hrs, compared to DMSO control
Description: An overnight suspension of S. […] The effect of the SMs on S. Typhimurium was assessed using confocal microscopy as previously described. Cells were stained for 45 min using FM4–64 (2 µg/ml; […] Invitrogen). Three microliters of stained bacteria were transferred onto agarose (1.2%) -coated glass slides. Microscopy was performed using a Leica TCS SP6 confocal scanning microscope with FM4–64 (515 nm/640 nm) and SYTO-9 (485 nm/498 nm) filters.

[5] = tested on: S. Typhimurium cell surface; assay: Scanning electron microscopy (SEM); type: cell-based, Salmonella enterica subsp. enterica serovar Typhimurium; conditions: 5X MBC for 3 hrs, compared to DMSO control
Description: Processing of the samples for SEM was performed with the same samples as above and as previously described. Briefly, one volume of bacterial suspension was mixed with one volume of fixative (3% glutaraldehyde, 1% paraformaldehyde in 0.1 M potassium phosphate buffer pH 7.2), and incubated for 2 hrs at 4 °C. Fixed cells were centrifuged for 5 min at 1,200 g, washed twice with 1X PBS, and resuspended into 1% osmium tetroxide for 1 hr at room temperature in the dark, followed by serial dehydration of the sample in ethanol and platinum splatter-coating. Visualization and imaging of the samples was performed using a Hitachi S-4700 scanning electron microscope.

[6] = tested on: S. Typhimurium cell content; assay: Loss of 260 nm absorbing materials; type: cell-based, Salmonella enterica subsp. enterica serotype Typhimurium; conditions: 1 hr, lethal dose (5X MBC), compared to 1% DMSO control
Description: Figure S2. Estimation of the membrane permeability of Salmonella enterica subsp. enterica serotype Typhimurium strain JSG626 after small molecule (SM) treatment. (A) Crystal […]
Treatments were normalized based on 10 μg/ml of crystal violet solution (no uptake […]
different than the 1% DMSO control (P<0.01); n= 9. (B) Loss of 260 nm absorbing materials from S. Typhimurium cell content. 260 nm absorbing materials were measured […]
standard deviation; *: the amount of 260 nm absorbing material in supernatant was […]
Both experiments were performed as previously described (1).
(also on this page, place not known: updtae (%) (ng/µl) Crystal violet 260 nm absorbing material) […]

chicken cecal microbiota = assay: Cecal microbiota, 16S rRNA sequencing; type: in vivo; conditions: compared to the DMSO group, P < 0.01
Salmonella Albany = assay: Dose-response assay (MBC) on Salmonella serovars; type: cell-based; conditions: Salmonella enterica; serovar Albany, M9 broth
[7] = tested on: avian Mycoplasma gallisepticum; assay: Activity spectrum on avian pathogens; type: cell-based; conditions: 100 µM, unpublished data
Bifidobacterium longum = assay: Growth of probiotic bacteria at 200 µM; type: cell-based; conditions: data not shown
Lactobacillus brevis = assay: Growth of probiotic bacteria at 200 µM; type: cell-based; conditions: data not shown
[8] = tested on: Lactobacillus rhamnosus GG; assay: Growth of probiotic bacteria at 200 µM; type: cell-based; conditions: data not shown
[9] = tested on: PhoP regulon in S. Typhimurium; set-up: method as in PubChem bioassay AID #1863, #1981, #2253, and #2401; conditions: ref PubChem bioassay AID #1863, #1981, #2253, and #2401; cited from earlier work
Salmonella Anatum = assay: Dose-response assay (MBC) on Salmonella serovars; type: cell-based; conditions: Salmonella enterica; serovar Anatum, M9 broth
Salmonella Braenderup = assay: Dose-response assay (MBC) on Salmonella serovars; type: cell-based; conditions: Salmonella enterica; serovar Braenderup, M9 broth
[10] = tested on: S. Typhimurium in infected Caco-2, HD11, and THP-1 cell lines; assay: S. Typhimurium survival in infected cell lines, summary over lines; type: cell-based, Salmonella enterica subsp. enterica serotype Typhimurium; conditions: over the three cell lines
Description: The ability of four SMs to clear S. Typhimurium was evaluated using three cell lines (Caco-2 cells, HD11, and THP-1 cells) as previously described. A multiplicity of infection (MOI) of 10 was used. Infected cells were treated with 1 µl of SMs (final concentration ranged between 100 µM and 6.25 µM) and incubated at 37 °C for 24 hrs in humidified, 5% CO2 incubator. Following incubation, cells were washed once with 1X PBS, lysed with 0.1% Triton-100X, serial ten-fold diluted in 1X PBS, and plated on agar plate. Plates were incubated at 37 °C for 24 hrs to determine the intracellular bacteria. Cells not infected and not treated, and cells infected and treated with 2% DMSO were used as controls.

[11] = SM combined with nalidixic acid

Row | SMILES | MBC ([1]; Salmonella enterica) [µM] | MBC (Salmonella Heidelberg) [µM] | MBC (Salmonella Javiana) [µM] | MBC (Salmonella Newport) [µM] | SM MBCcombined ([2]; SM combined with cefotaxime) | SM MBCcombined ([2]; SM combined with erythromycin) | MBC [2] [µM] | Reduction of cefeprime MBC [2] | Reduction of meropenem MBC [2] [fold] | Membrane phenotype, FM4–64 staining [4] | Cell surface phenotype in SEM [5] | Increase in 260 nm-absorbing material [6] [fold] | Salmonella OTUs in ceca (chicken cecal microbiota) | MBC [1] [µM] | MBC (Salmonella Albany) [µM] | SM MBCcombined [2, 11] | Effect on Mycoplasma gallisepticum [7] | further results
1 | CC1CCC(C(C)C)C(OC(=O)Cn2c[n+](CC(=O)OC3CC(C)CCC3C(C)C)c3ccccc32)C1 (stereo not drawn) [SM1] | 50 | 100 | 100 | 100 | 50 µM | 50 µM | 50 | at least 5 fold | 5 | No signal was detected | distorted | 2.18 | reduction |  |  |  |  | Effect on Campylobacter jejuni 81–176 [3]: lethal
2 | CCOc1cc(/C=N/N=C(N)N)ccc1OCc1ccc(Cl)cc1 [SM5] | 25 (≈ 8.67 µg/mL) | 50 (≈ 17.3 µg/mL) | 50 (≈ 17.3 µg/mL) | 50 (≈ 17.3 µg/mL) | 25^c μM | 25^c μM | 25 |  |  | a bright red spot was detected within every bacterium | outer membrane vesicles of approximately 100 to 300 nm diameter | 5.25 | reduction | 25 (≈ 8.67 µg/mL) | 100 (≈ 34.7 µg/mL) | 25^c μM | lethal | SM MBCcombined ([2]; SM combined with cefeprime): 25^c μM; SM MBCcombined ([2]; SM combined with ciprofloxacin at the concentration in the cell before): 20^b μM; SM MBCcombined ([2]; SM combined with meropenem): 25^c μM; Effect on growth of Bifidobacterium longum (Bifidobacterium longum): did not affect the growth; Effect on growth of Lactobacillus brevis (Lactobacillus brevis): did not affect the growth; Effect on growth of Lactobacillus rhamnosus GG [8]: did not affect the growth; Activity on the PhoP regulon [9]: direct or indirect inhibitor
3 | CCCCCCCCCCCCCCCC[n+]1ccn(CC#N)c1 [SM3] | 25 | 50 | 25 | 50 | 25^c μM | 25^c μM | 25 | at least 5 fold | 2.5 | No signal was detected |  | 7.17 |  | 25 | 25 | 25^c μM | lethal | MBC (Salmonella Anatum): 25 µM; MBC (Salmonella Braenderup): 25 µM; Concentration clearing internalized Salmonella [10]: 50 µM
